Patent publication US5750566A, “Synthetic excitatory amino acids” (Eli Lilly and Company, priority 1995, dated 1998)
Structures can show the parent of a compound that is named as a salt.

Key:
Long Evans rats [1] = conditions: statement about clinically proven anxiolytics; cited from earlier work
mice [2] = conditions: statement about clinically proven anxiolytics; cited from earlier work
[3] = test system: cAMP-linked metabotropic glutamate receptors; conditions: literature; cited from earlier work
[4] = test system: PI-linked metabotropic glutamate receptors; conditions: literature; for L-CCG-I at higher concentrations; cited from earlier work
Long Evans rats [5] = assay: Auditory startle after diazepam withdrawal; type: in vivo, rat (Long Evans)
Long Evans rats [6] = assay: Fear potentiated startle model of anxiety; type: in vivo, rat (male Long Evans)
Source text: In the fear potentiated startle model, animals are exposed to a neutral stimulus such as light (conditioned stimulus) with an aversive stimulus such as a shock (unconditioned stimulus). Following conditioning, when the animals are presented with a loud acoustic stimulus, larger startle responses are elicited when the startle stimulus is preceded by light.
(§1) Male Long Evans rats (180-400 g) or male NIH Swiss mice (18-35 g) were obtained from Harlan Sprague-Dawley, Cumberland, Ind., USA and acclimated at least 3 days before testing. Animals were housed at 23±2° C.(relative humidity 30% to 70%) and given Purina Certified Rodent Chow and water ad libitum. The photoperiod was 12 hours of light and 12 hours of dark, with dark onset at approximately 1800 hours.
(§2) Test compounds were dissolved in a vehicle of purified water and neutralized with 5N NaOH to a pH of 7-8 when applicable. […] Control animals received the respective vehicle.
SL-LAB (San Diego Instruments, San Diego, Calif.) chambers were used for conditioning sessions and for the production and recording of startle responses. A classical conditioning procedure was used to produce potentiation of startle responses. Briefly, on the first 2 days, rats were placed into dark startle chambers in which shock grids were installed. […]

[7] = test system: metabotropic glutamate receptors; assay: Displacement of (1S,3R)-ACPD-sensitive [3H]glutamate binding to rat brain cell membranes (receptor binding); conditions: crude membranes of rat forebrain; compounds 3 and 8 tested as mixture of enantiomers, 6 and 7 as pure enantiomers; read-out: IC50 (concentration that inhibited 50% [3H]glutamate binding)
Experimental: The binding of [^3 H]glutamate ([^3 H]Glu) was conducted with crude membranes of rat forebrain as described by Schoepp and True. Schoepp and True, Neuroscience Lett., 145, 100-104 (1992); Wright, McDonald, and Schoepp, J. Neurochem., 63, 938-945 (1994). The concentration of the formula I compound that inhibited 50% binding (IC50), or the percent displacement of [^3 H]Glu at a 10 μM or 100 μM concentration of the formula I compound, is shown in Table I.

[8] = molecular target: cAMP-linked metabotropic glutamate receptors (rat hippocampus); assay: Inhibition of forskolin-stimulated cAMP formation in rat hippocampus; type: biochemical
Experimental: (§3) The formula I compounds are effective in affecting the cAMP-linked metabotropic glutamate receptors. Representative compounds were tested for their ability to decrease forskolin-stimulated cAMP formation in the rat hippocampus and the rat cerebral cortex, using the procedures described in Schoepp and Johnson. Schoepp and Johnson, Neurochem. Int., 22, 277-283 (1993).

[9] = molecular target: cAMP-linked metabotropic glutamate receptors (rat cerebral cortex); assay: Inhibition of forskolin-stimulated cAMP formation in rat cerebral cortex; type: biochemical
Experimental: as §3

Long Evans rats [10] = assay: Auditory startle after nicotine withdrawal; type: in vivo, rat (Long Evans)
Experimental: This cessation of drug dosing elicits an increased startle response to auditory stimuli.
Long Evans rats (200-400 g; Harlan Sprague Dawley, Columbus, Ind.) were individually housed in a controlled environment on a 12 hour light-dark cycle and given free access to food (Purina Rodent Chow) and water. Rats were anesthetized with isoflurane and Alzet osmotic pumps (Alza Corporation) were implanted subcutaneously.
Test compound was dissolved in a vehicle of purified water and neutralized with 5N NaOH to a PH of 7-8 when applicable. […] Nicotine (Research Biochemicals Inc., Natick, Mass.) was dissolved in saline. Control animals received the respective vehicle.
Twelve days following subcutaneous implantation of pumps, rats were anesthetized with isoflurane and the pumps were removed. During withdrawal (following pump removal), the auditory startle response (peak amplitude, Vmax) of individual rats was recorded using San Diego Instruments startle chambers (San Diego, Calif.). Startle sessions consisted of a 5-minute adaptation period at a background noise level of 70±2 dBA immediately followed by 25 presentations of auditory stimuli (120±2 dBA noise, 50 ms duration) presented at 8-second intervals. Peak startle amplitudes were then averaged for all 25 presentations of stimuli for each session and all data are presented here as overall session means. Auditory startle responding was evaluated daily on withdrawal days 1,2,3,4 or 5. Baseline startle responding was evaluated prior to pump removal on day 12.

mice [11] = assay: Automated elevated plus maze model of anxiety; type: in vivo, mouse (male NIH Swiss); conditions: five-minute test
Experimental: The elevated plus maze model is based upon the natural aversion of rodents to height and open spaces.
as §1, §2
Automated Elevated Plus Maze
Construction of the elevated plus-maze was based on a design validated for mice by Lister (1987). The entire maze was made of clear Plexiglas. The maze was comprised of two open arms (30×5×0.25 cm) and two enclosed arms (30×5×15 cm). The floor of each maze arm was corrugated to provide texture. The arms extended from a central platform and angled at 90 degrees from each other. The maze was elevated to a height of 45 cm above the floor and illuminated by red light. Individual infrared photocells were mounted along each arm of the maze to monitor closed, open, or nosepoke activity. Mice were individually placed on the central platform of the maze and the number of closed arm, open arm, and nosepoke (poking head only into open arm from closed arm of maze) counts were recorded and used as a measure of arm entries and time spent on various sections of the maze over a five-minute test period.

O=C1CC2(CCCC2)CC(=O)N1CCCCN1CCN(c2ncccn2)CC1 [buspirone hydrochloride]
reduction of fear (increased startle response) associated with presentation of light (Long Evans rats [1]): effective at reducing the fear (increased startle response) | reduction of fear of open spaces in elevated plus maze (mice [2]): reducing the fear of open spaces

N[C@@]1(C(=O)O)CC[C@@H](C(=O)O)C1 [1S,3R-ACPD, (1S,3R)-1-Aminocyclo-pentane-1,3-dicarboxylic acid]
agonist activity at cAMP-linked metabotropic glutamate receptors [3]: agonist of PI-linked and cAMP-linked metabotropic glutamate receptors | activity at PI-linked metabotropic glutamate receptors [4]: agonist of PI-linked and cAMP-linked metabotropic glutamate receptors

CN1C(=O)CN=C(c2ccccc2)c2cc(Cl)ccc21 [Diazepam, reference compound]
increased reactivity following diazepam cessation with diazepam replacement (Long Evans rats [5]; 30 mg/kg, i.p. daily 60 minutes before evaluation, days 1 through 4, vs diazepam control): did not show increased reactivity | increased startle responding with diazepam replacement (Long Evans rats [5]; replacement 3 and 10 mg/kg, i.p.): did not block the increased startle responding | increased reactivity with diazepam replacement (Long Evans rats [5]; replacement 3 and 10 mg/kg, i.p., in some instances): further increased reactivity | reduction of fear (increased startle response) associated with presentation of light (Long Evans rats [1]): effective at reducing the fear (increased startle response) | ED50 (Long Evans rats [6]; Rattus norvegicus, po, read-out: ED50, fear potentiated startle): 0.4 mg/kg | reduction of fear of open spaces in elevated plus maze (mice [2]): reducing the fear of open spaces

N[C@@]1(C(=O)O)CC[C@H]2[C@H](C(=O)O)[C@H]21 (racemic) [Compound 3, (1SR,2SR,5RS,6SR) 2-Aminobicyclo[3.1.0]hexane-2,6-dicarboxylic Acid]
IC50 [7]: 320 nM

NC1(C(=O)O)CCC2C(C(=O)O)C21 (single isomer, unassigned; (-)) [Compound 7, (-)-2-Aminobicyclo[3.1.0]hexane-2,6-dicarboxylic Acid]
EC50 [8]: 29400 ± 3040 nM | IC50 [7]: 161000 nM | ED50, fear potentiated startle (Long Evans rats [6]; p.o., Inactive = at highest dose tested, 10 mg/kg p.o.): Inactive | EC50 [9]: 22000 ± 3400 nM

CN1CCC[C@H]1c1cccnc1 [nicotine, reference compound]
heightened startle response with nicotine replacement dose (Long Evans rats [10]; 0.03 mg/kg, i.p., or higher): did not display the same heightened startle response | auditory startle responding following cessation of chronic nicotine exposure (Long Evans rats [10]; first three days after cessation, vs control rats receiving water, nicotine 6 mg/kg/day s.c.): significantly increased

NC1(C(=O)O)CCC2C(C(=O)O)C21 (single isomer, unassigned; (+)) [Compound 6, (+)-2-Aminobicyclo[3.1.0]hexane-2,6-dicarboxylic Acid]
nosepoke counts (mice [11]; oral, 3 mg/kg): significant increase | open arm activity (mice [11]; oral, 1, 3 and 10 mg/kg): significant increases | closed arm activity counts (mice [11]; oral, any dose): not significantly altered | attenuation of heightened startle (Long Evans rats [10]; 3 mg/kg, p.o., compared to nicotine controls): significant attenuation | ED50 (Long Evans rats [10]; Rattus norvegicus, ip, compared to nicotine controls, route printed i.p., read-out: ED50, attenuation of nicotine withdrawal-induced heightened startle): 0.7 mg/kg | withdrawal-induced increase in startle responding after pretreatment (Long Evans rats [10]; pretreatment, nicotine withdrawal): dose-dependent blockade | EC50 [8]: 36 ± 15 nM | IC50 [7]: 180 nM | attenuation of enhanced startle (Long Evans rats [5]; 0.1 and 0.3 mg/kg, p.o., compared to control responding): significantly attenuated enhanced startle | ED50 (Long Evans rats [5]; Rattus norvegicus, po, read-out: ED50, attenuation of diazepam withdrawal-enhanced startle, p.o., compared to control responding): 0.1 mg/kg | expected increase in startle responding following cessation of diazepam, after pretreatment (Long Evans rats [5]; pretreatment, diazepam withdrawal): blocked the expected increase in startle responding | EC50 [9]: 55 ± 17 nM

N[C@@]1(C(=O)O)CC[C@H]2[C@@H](C(=O)O)[C@H]21 (racemic) [Compound 8, (1SR,2SR,5RS,6RS) 2-Aminobicyclo[3.1.0]hexane-2,6-dicarboxylic Acid]
IC50 [7]: 3200 nM

N[C@H](C(=O)O)[C@H]1C[C@@H]1C(=O)O [L-CCG-I, (2S,3S,4S)-2-(carboxycyclopropyl)glycine]
agonist activity at cAMP-linked metabotropic glutamate receptors [3]: selective cAMP-linked metabotropic glutamate receptor agonist | activity at PI-linked metabotropic glutamate receptors [4]: activity at PI-linked metabotropic receptors
